According to patent publication US20240207240A1, “Method for Improving or Treating Cognitive Dysfunction Complicating HIV-associated Cryptococcal Meningitis with Lenalidomide” (The First Affiliated Hospital Zhejiang University School of …, priority 2022, published 2024):
Several values for one entry are separate records, joined by “and”; a condition that tells them apart may be missing. Identical values can stand only once. Like-named read-outs stand apart in the source and are kept apart here.

Legend:
[1] = test system: patients with cognitive dysfunction caused by HIV-associated CM-IRIS; assay type: in vivo, human; conditions: for ΔMoCA: week 24 - week 0, median
[2] = test system: patients with cognitive dysfunction caused by HIV-associated CM-IRIS; assay type: in vivo, human; conditions: for ΔIHDS: week 24 - week 0, median
[3] = test system: patients with cognitive dysfunction caused by HIV-associated CM-IRIS; assay: overall cognitive status by MoCA and IHDS scales; assay type: in vivo, human; conditions: of 7 patients treated with lenalidomide
Description: FIGS. 2A and 2B show results of treating patients with HIV-associated CM who still develop cognitive dysfunction after completing the anti-cryptococcal induction treatment. The patients are treated with lenalidomide. In the treatment, lenalidomide is administered at 25 mg/day for immuno-modulation for a total of 6 treatment cycles, with each cycle including 21 days of lenalidomide administration followed by 7 days of no lenalidomide. The patients are further assigned to a cognitive improvement group and a cognitive non-improvement group. […] FIG. 2A compares CSF biochemistry in the cognitive improvement group and cognitive non-improvement group before and after treatment.
Definition of cognitive dysfunction: The Chinese version of the Montreal Cognitive Assessment (MoCA) shown in Table 1, International HIV Dementia Scale (IHDS) shown in Table 2, and Center for Epidemiological Research Depression Scale (CES-D) are used to assess patients' cognitive status. They all use Chinese questionnaires that have been validated for the evaluation of Chinese patients. The MoCA tests eight major neurocognitive domains, including short-term memory recall (no score), visuospatial ability, naming, attention, language, conceptual thinking, working memory, and orientation of time and place. […]

TNF-α = conditions: cited from earlier work
[4] = individual Patients 1-4 (cognitive improvement group)
[5] = individual Patients 5-7 (cognitive non-improvement group)

Question: Which results are given for `Nc1cccc2c1CN(C1CCC(=O)NC1=O)C2=O` (centres unmarked) [lenalidomide]?
Answer: median MoCA score ([1]; W24, after 6 cycles lenalidomide 25 mg/day (21 days on, 7 off), 7 patients, baseline 23.0 (13.0-24.0), P=0.018): 26.0 (24.0-28.0); memory score in the MoCA ([1]; W24, baseline 1.0 (0-3.0), P=0.026): 4.0 (3.0-5.0); MoCA-W 24 [1, 4]: 30 scores and 26 scores (2×) and 28 scores; MoCA-W 24 [1, 5]: 24 scores and 25 scores and 19 scores; ΔMoCA ([1]; CI group): 8.5 scores; ΔMoCA ([1]; CNI group): 1.0 scores; median IHDS score ([2]; W24, after 6 cycles lenalidomide, 7 patients, baseline 9.0 (2.5-10.5), P=0.028): 11.0 (10.0-12.0); recall of the four items in the IHDS ([2]; W24, baseline 1.5 (1.0-3.5), P=0.042): 4.0 (2.0-4.0); IHDS-W 24 [2, 4]: 10 scores (2×) and 11 scores and 12 scores; IHDS-W 24 [2, 5]: 12 scores (2×) and 10 scores; ΔIHDS ([2]; CI group): 5.25 scores; ΔIHDS ([2]; CNI group): 1.5 scores; patients whose cognitive status returned to normal [3]: 4 patients; inhibitory effect on TNF-α relative to thalidomide (TNF-α): 2000 times
